# According to PubChem BioAssay (NCI):
#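 Step 1: Grow cells in 96-well plates. Step 2: Expose to compound for 48 hours at 5 concentrations. Step 3: Interpolate endpoints linearly; if unreached, use highest concentration. At the GI50, growth is halved. TGI is the concentration that stops growth completely.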
# What was measured:
# Assay in all cases: growth of human tumour cells (NCI), 48 h
# [1] = system: A498 renal
# [2] = system: SK-MEL-28 melanoma
# [3] = system: RPMI-8226 leukemia
# [4] = system: SK-OV-3 ovarian
# [5] = system: CCRF-CEM leukemia
# [6] = system: A549 NSCLC
# [7] = system: NCI-H226 lung
# [8] = system: K-562 leukemia
# [9] = system: EKVX NSCLC
# [10] = system: SR leukemia
# [11] = system: SF-295 CNS
# [12] = system: COLO 205 colon
# [13] = system: UO-31 renal
# [14] = system: BT-549 breast
# [15] = system: NCI-H460 lung
# [16] = system: NCI-H522 lung
# [17] = system: HT29 colon
# [18] = system: TK-10 renal
# [19] = system: 786-0 renal
# [20] = system: UACC-62 melanoma
# [21] = system: KM12 colon
# [22] = system: MALME-3M melanoma
# [23] = system: OVCAR-8 ovarian
# [24] = system: MOLT-4 leukemia
# [25] = system: IGROV1 ovarian
# [26] = system: RXF 393 renal
# [27] = system: SW-620 colon
# [28] = system: HCC-2998 colon
# [29] = system: ACHN renal
# [30] = system: SF-539 CNS
# [31] = system: SN12C renal
# [32] = system: SK-MEL-2 melanoma
# [33] = system: HCT-116 colon
# [34] = system: HS 578T breast
# [35] = system: DU-145 prostate
# [36] = system: SK-MEL-5 melanoma
# [37] = system: NCI/ADR-RES ovarian
# [38] = system: M14 melanoma
# [39] = system: HL-60(TB) leukemia
# [40] = system: UACC-257 melanoma
# [41] = system: PC-3 prostate
# [42] = system: MCF7 breast
# [43] = system: OVCAR-4 ovarian
# [44] = system: HOP-92 NSCLC
# [45] = system: MDA-MB-435
# [46] = system: HOP-62 NSCLC
# [47] = system: CAKI-1 renal
# [48] = system: MDA-MB-231 breast
# [49] = system: SNB-19 CNS
# [50] = system: SNB-75 CNS
# [51] = system: OVCAR-5 ovarian
# [52] = system: NCI-H23 lung
# [53] = system: HCT-15 colon
# [54] = system: U251 CNS
# [55] = system: SF-268 CNS
# [56] = system: LOX IMVI melanoma
# [57] = system: OVCAR-3 ovarian
smiles,measurement,setting,value
CCN1C(=O)N(CC)C2SC(N/N=C/C=C/c3ccccc3OC)=NC21 (stereo unspecified),GI50,[1],188 nM
same,TGI,[1],636 nM
same,GI50,[2],1510 nM
same,TGI,[2],> 100000 nM
same,GI50,[3],398 nM
same,TGI,[3],18200 nM
same,GI50,[4],528 nM
same,TGI,[4],> 100000 nM
same,GI50,[5],386 nM
same,TGI,[5],> 100000 nM
same,GI50,[6],750 nM
same,TGI,[6],> 100000 nM
same,GI50,[7],562 nM
same,TGI,[7],> 100000 nM
same,GI50,[8],400 nM
same,TGI,[8],> 100000 nM
same,GI50,[9],1120 nM
same,TGI,[9],> 100000 nM
same,GI50,[10],351 nM
same,TGI,[10],> 100000 nM
same,GI50,[11],371 nM
same,TGI,[11],> 55100 nM
same,GI50,[12],308 nM
same,TGI,[12],951 nM
same,GI50,[13],730 nM
same,TGI,[13],> 100000 nM
same,GI50,[14],353 nM
same,TGI,[14],1410 nM
same,GI50,[15],379 nM
same,TGI,[15],13100 nM
same,GI50,[16],236 nM
same,TGI,[16],703 nM
same,GI50,[17],346 nM
same,TGI,[17],3820 nM
same,GI50,[18],19400 nM
same,TGI,[18],> 96600 nM
same,GI50,[19],758 nM
same,TGI,[19],18900 nM
same,GI50,[20],405 nM
same,TGI,[20],> 100000 nM
same,GI50,[21],431 nM
same,TGI,[21],> 46300 nM
same,GI50,[22],504 nM
same,TGI,[22],> 100000 nM
same,GI50,[23],588 nM
same,TGI,[23],7140 nM
same,GI50,[24],652 nM
same,TGI,[24],> 100000 nM
same,GI50,[25],668 nM
same,TGI,[25],> 100000 nM
same,GI50,[26],350 nM
same,TGI,[26],8900 nM
same,GI50,[27],383 nM
same,TGI,[27],> 100000 nM
same,GI50,[28],853 nM
same,TGI,[28],13600 nM
same,GI50,[29],744 nM
same,TGI,[29],> 100000 nM
same,GI50,[30],305 nM
same,TGI,[30],2940 nM
same,GI50,[31],991 nM
same,TGI,[31],> 76600 nM
same,GI50,[32],672 nM
same,TGI,[32],18100 nM
same,GI50,[33],419 nM
same,TGI,[33],> 100000 nM
same,GI50,[34],321 nM
same,TGI,[34],> 100000 nM
same,GI50,[35],704 nM
same,TGI,[35],> 100000 nM
same,GI50,[36],525 nM
same,TGI,[36],9170 nM
same,GI50,[37],495 nM
same,TGI,[37],> 100000 nM
same,GI50,[38],313 nM
same,TGI,[38],3230 nM
same,GI50,[39],299 nM
same,GI50,[40],838 nM
same,TGI,[40],> 100000 nM
same,GI50,[41],474 nM
same,TGI,[41],> 72500 nM
same,GI50,[42],427 nM
same,TGI,[42],> 100000 nM
same,GI50,[43],20300 nM
same,TGI,[43],> 100000 nM
same,GI50,[44],266 nM
same,TGI,[44],4300 nM
same,GI50,[45],224 nM
same,TGI,[45],560 nM
same,GI50,[46],535 nM
same,TGI,[46],> 100000 nM
same,GI50,[47],567 nM
same,TGI,[47],> 100000 nM
same,GI50,[48],1500 nM
same,TGI,[48],38600 nM
same,GI50,[49],538 nM
same,TGI,[49],> 100000 nM
same,GI50,[50],265 nM
same,TGI,[50],> 100000 nM
same,GI50,[51],1300 nM
same,TGI,[51],> 100000 nM
same,GI50,[52],614 nM
same,TGI,[52],> 100000 nM
same,GI50,[53],428 nM
same,TGI,[53],> 100000 nM
same,GI50,[54],400 nM
same,TGI,[54],16900 nM
same,GI50,[55],2510 nM
same,TGI,[55],> 100000 nM
same,GI50,[56],569 nM
same,TGI,[56],26900 nM
CNC(=O)c1cc(Oc2ccc3nc(NC(=O)c4ccc(CN5CCCN(C)CC5)c(C(F)(F)F)c4)sc3c2)ccn1,GI50,[1],1960 nM
same,TGI,[1],3380 nM
same,GI50,[2],1300 nM
same,TGI,[2],2640 nM
same,GI50,[3],694 nM
same,TGI,[3],2600 nM
same,GI50,[4],1760 nM
same,TGI,[4],3270 nM
same,GI50,[5],1800 nM
same,TGI,[5],4060 nM
same,GI50,[6],1640 nM
same,TGI,[6],3080 nM
same,GI50,[8],331 nM
same,TGI,[8],1460 nM
same,GI50,[9],1700 nM
same,TGI,[9],3140 nM
same,GI50,[10],502 nM
same,TGI,[10],2150 nM
same,GI50,[11],1760 nM
same,TGI,[11],3220 nM
same,GI50,[12],1390 nM
same,TGI,[12],2780 nM
same,GI50,[13],1350 nM
same,TGI,[13],2710 nM
same,GI50,[14],1680 nM
same,TGI,[14],3140 nM
same,GI50,[15],1650 nM
same,TGI,[15],3140 nM
same,GI50,[16],1740 nM
same,TGI,[16],3310 nM
same,GI50,[17],387 nM
same,TGI,[17],1480 nM
same,GI50,[18],2400 nM
same,TGI,[18],4030 nM
same,GI50,[19],1250 nM
same,TGI,[19],2550 nM
same,GI50,[20],1690 nM
same,TGI,[20],3320 nM
same,GI50,[21],1680 nM
same,TGI,[21],3210 nM
same,GI50,[22],1400 nM
same,TGI,[22],2840 nM
same,GI50,[23],1670 nM
same,TGI,[23],3180 nM
same,GI50,[24],1460 nM
same,TGI,[24],3100 nM
same,GI50,[25],1740 nM
same,TGI,[25],3400 nM
same,GI50,[26],1070 nM
same,TGI,[26],2270 nM
same,GI50,[27],1700 nM
same,TGI,[27],3190 nM
same,GI50,[28],1880 nM
same,TGI,[28],3360 nM
same,GI50,[29],1720 nM
same,TGI,[29],3090 nM
same,GI50,[30],1100 nM
same,TGI,[30],2320 nM
same,GI50,[31],1730 nM
same,TGI,[31],3300 nM
same,GI50,[32],1780 nM
same,TGI,[32],3380 nM
same,GI50,[33],1160 nM
same,TGI,[33],2400 nM
same,GI50,[34],1480 nM
same,TGI,[34],3800 nM
same,GI50,[57],1850 nM
same,TGI,[57],3410 nM
same,GI50,[35],1700 nM
same,TGI,[35],3280 nM
same,GI50,[36],1590 nM
same,TGI,[36],2980 nM
same,GI50,[37],1680 nM
same,TGI,[37],3530 nM
same,GI50,[38],1220 nM
same,TGI,[38],2650 nM
same,GI50,[39],1350 nM
same,TGI,[39],2940 nM
same,GI50,[40],1570 nM
same,TGI,[40],2950 nM
same,GI50,[41],1480 nM
same,TGI,[41],3240 nM
same,GI50,[43],1600 nM
same,TGI,[43],3110 nM
same,GI50,[44],1360 nM
same,TGI,[44],3000 nM
same,GI50,[45],1480 nM
same,TGI,[45],2880 nM
same,GI50,[46],1610 nM
same,TGI,[46],3080 nM
same,GI50,[47],1520 nM
same,TGI,[47],2900 nM
same,GI50,[50],1220 nM
same,TGI,[50],2480 nM
same,GI50,[51],1640 nM
same,TGI,[51],3070 nM
same,GI50,[53],959 nM
same,TGI,[53],2240 nM
same,GI50,[54],1440 nM
same,TGI,[54],2800 nM
